Source: US7560262B2, “Polynucleotide sequences encoding alkaline α-galactosidases and methods of using same” (The State of Israel - Ministry of Agriculture & Rural …, priority 2002, dated 2009)
Read-outs that look alike come from different tables or passages of the source.

What was measured:
[1] = biological target: recombinant Aga-I (alkaline-α-galactosidase I) (Cucumis melo, UniProt A0ABM3L1M0); assay: α-galactosidase assay of E. coli extracts: substrate specificity of recombinant Aga-I; assay type: biochemical; settings: for Activity (calculated specific activity): recombinant Aga-I, substrate 10 mM, pH 8; for activity of recombinant Aga-I with nitrophenyl substrates: recombinant Aga-I extract
Method: α-galactosidase assay of E. coli extracts—α-galactosidase activity was assayed as described by Smart and Pharr [Smart and Pharr (1980) Plant Physiol. 66:731-734] and as performed by Gao and Schaffer (1999) Plant Physiol. 119:979-987]. Reaction was initiated by adding 50 μl enzyme aliquot to 200 μl McIlvaine buffer (made by mixing stock solutions of 0.1M citric acid and 0.2M sodium hydrogen phosphate to achieve pH of 5.0 and 7.0 for the assay of acid and alkaline activity, respectively) and 50 μl substrate (final concentration, 5 mM for pNPG and 10 mM for the natural substrates). Optimum pH for galactosidase activity was determined using the following reaction buffers: Mcllvaine buffer, over a pH range of 4 to 7, 100 mM Hepes buffer over a pH range of 7 to 8, or 50 mM Tris buffer over a pH range of 8 to 8.7. […] In addition, substrate concentration dependence of the reaction was measured by varying the substrate concentrations from 0-10 mM. Km and Vmax values were calculated using Lineweaver-Burk plots.

[2] = tested on: alkaline α-galactosidase from Cucurbita pepo leaves; settings: cited from earlier work; for affinity as substrate: Gaudreault and Webb; for inhibition of the enzyme's activity by the reaction product: Gaudreault and Webb 1983
[3] = substrate: OC[C@H]1O[C@H](OC[C@H]2O[C@H](OC[C@H]3O[C@H](O[C@]4(CO)O[C@H](CO)[C@@H](O)[C@@H]4O)[C@H](O)[C@@H](O)[C@@H]3O)[C@H](O)[C@@H](O)[C@H]2O)[C@H](O)[C@@H](O)[C@H]1O; assay: purified protein, by the assay type; settings: other: recombinant Aga-I, pH 8, Lineweaver-Burk plots
[4] = substrate: OC[C@H]1O[C@H](OC[C@H]2O[C@H](O[C@]3(CO)O[C@H](CO)[C@@H](O)[C@@H]3O)[C@H](O)[C@@H](O)[C@@H]2O)[C@H](O)[C@@H](O)[C@H]1O; assay: purified protein, by the assay type; settings: other: recombinant Aga-I, pH 8, Lineweaver-Burk plots
[5] = pH and temperature dependence of α-galactosidase activity of recombinant Aga-I and Aga-II; assay type: biochemical; settings: for pH of maximal α-galactosidase activity: extracts of transformed E. coli, pNPG, FIG. 4
Method: α-galactosidase assay of E. coli extracts—α-galactosidase activity was assayed as described by Smart and Pharr [Smart and Pharr (1980) Plant Physiol. 66:731-734] and as performed by Gao and Schaffer (1999) Plant Physiol. 119:979-987]. Reaction was initiated by adding 50 μl enzyme aliquot to 200 μl McIlvaine buffer (made by mixing stock solutions of 0.1M citric acid and 0.2M sodium hydrogen phosphate to achieve pH of 5.0 and 7.0 for the assay of acid and alkaline activity, respectively) and 50 μl substrate (final concentration, 5 mM for pNPG and 10 mM for the natural substrates). […] Substrates used were the synthetic substrates based on p-nitrophenol (pNP-sugars), including the pNPa-gal (Sigma) and the natural substrates stachyose, raffinose and melibiose. In addition, substrate concentration dependence of the reaction was measured by varying the substrate concentrations from 0-10 mM. Km and Vmax values were calculated using Lineweaver-Burk plots.

6-O-α-D-galactopyranosyl-D-glucose [Melibiose]
Activity (calculated specific activity) [1]: 124 nmol/mg protein/minute | affinity as substrate [2]: low affinity

OC[C@H]1O[C@H](OC[C@H]2O[C@H](O[C@]3(CO)O[C@H](CO)[C@@H](O)[C@@H]3O)[C@H](O)[C@@H](O)[C@@H]2O)[C@H](O)[C@@H](O)[C@H]1O [Raffinose, O-α-D-galactopyranosyl-(1-6)-O-α-D-glucopyranosyl-(1-2)-beta-D-fructofuranoside]
Activity (calculated specific activity) [1]: 482 nmol/mg protein/minute | affinity as substrate [2]: low affinity

OC[C@H]1O[C@H](OC[C@H]2O[C@H](OC[C@H]3O[C@H](O[C@]4(CO)O[C@H](CO)[C@@H](O)[C@@H]4O)[C@H](O)[C@@H](O)[C@@H]3O)[C@H](O)[C@@H](O)[C@H]2O)[C@H](O)[C@@H](O)[C@H]1O [Stachyose, O-α-D-galactopyranosyl-(1-6)-O-α-D-galactopyranosyl-(1-6)-O-α-D-glucopyranosyl-(1-2)-beta-D-fructofuranoside]
Activity (calculated specific activity) [1]: 645 nmol/mg protein/minute

C[C@@H]1O[C@@H](Oc2ccc([N+](=O)[O-])cc2)[C@@H](O)[C@H](O)[C@@H]1O [pNP-Fuc]
activity of recombinant Aga-I with nitrophenyl substrates [1]: no activity

CC(=O)N[C@H]1[C@H](Oc2ccc([N+](=O)[O-])cc2)O[C@H](CO)[C@@H](O)[C@@H]1O [pNP-NacG]
activity of recombinant Aga-I with nitrophenyl substrates [1]: no activity

O=[N+]([O-])c1ccc(O[C@H]2O[C@H](CO)[C@@H](O)[C@H](O)[C@H]2O)cc1 [pNP-αGlu]
activity of recombinant Aga-I with nitrophenyl substrates [1]: no activity

O=[N+]([O-])c1ccc(O[C@H]2O[C@H](CO)[C@@H](O)[C@H](O)[C@@H]2O)cc1 [pNP-αMan]
activity of recombinant Aga-I with nitrophenyl substrates [1]: no activity

O=[N+]([O-])c1ccc(O[C@@H]2O[C@H](CO)[C@H](O)[C@H](O)[C@H]2O)cc1 [pNP-βGal]
activity of recombinant Aga-I with nitrophenyl substrates [1]: some activity

O=[N+]([O-])c1ccc(O[C@@H]2O[C@H](CO)[C@@H](O)[C@H](O)[C@H]2O)cc1 [pNP-βGlu]
activity of recombinant Aga-I with nitrophenyl substrates [1]: no activity

O=[N+]([O-])c1ccc(O[C@@H]2O[C@H](CO)[C@@H](O)[C@H](O)[C@@H]2O)cc1 [pNP-βMan]
activity of recombinant Aga-I with nitrophenyl substrates [1]: no activity

OC[C@H]1O[C@H](O)[C@H](O)[C@@H](O)[C@H]1O [α-D-galactose]
inhibition of the enzyme's activity by the reaction product [2]: strong inhibitor | inhibition of the enzyme's activity by the reaction product ([2]; listed as α-galactose): strongly inhibited

B1: recombinant Aga-I (alkaline-α-galactosidase I) (Cucumis melo) (protein)
chain: MTVGAGITISDANLTVLGNRVLSDVHNNITLTAAPGGGVMNGAFIGVQSDQIGSRRVFPIGKLIGLRFLCAFRFKLWWMTQRMGCSGQEVPFETQFLVVETRDGSNIAGNGEEGDAVYTVFLPILEGDFRAVLQGNDNNEIEICLESGDPSVDGFEGSHLVFVGAGSDPFETITYAVKSVEKHLQTFAHRERKKMPDILNWFGWCTWDAFYTDVTSDGVKKGLESFENGGIPPKFVIIDDGWQSVAKDATSADCKADNTANFANRLTHIKENYKFQKDGKEGERIENPALGLQHIVSYMKEKHATKYVYVWHAITGYWGGVSAGVKEMEQYESKIAYPVASPGVESNEPCDALNSITKTGLGLVNPEKVFNFYNEQHSYLASAGVDGVKVDVQNILETLGAGHGGRVKLARKYHQALEASISRNFQDNGIISCMSHNTDGLYSSKRNAVIRASDDFWPRDPASHTIHIASVAYNSLFLGEFMQPDWDMFHSLHPMAEYHGAARAVGGCAIYVSDKPGQHDFNLLKKLVLPDGSILRAKLPGRPTKDCLFTDPARDGKSLLKIWNLNDLSGVVGVFNCQGAGWCKVGKKNLIHDENPDTITGVIRAKDVSYLWKIAGESWTGDAVIFSHLAGEVVYLPQDASMPITLKPREFDVFTVVPVKELVNDIKFAPIGLIKMFNSGGAVKEMNHQPGSSNVSLKVRGSGPFGAYSSSKPKRVAVDSEEVEFMYDEGGLITIDLKVPEKELYLWDIRIEL
Km [3]: 1900 µM | Km [4]: 1800 µM

B2: Aga-I: Cucumis melo alkaline-α-galactosidase I, SEQ ID NO: 6, encoded by SEQ ID NO: 5 (protein)
chain: B1 chain
modifications: Cucumis melo
pH of maximal α-galactosidase activity [5]: 8 pH | galactosidase activity at pH 9 ([5]; pH 9, data not shown): activity was still observed | pH range of highest galactosidase activity ([5]; recombinant Aga-I, data not shown): 7.5-8 pH

B3: Aga-II: Cucumis melo alkaline α-galactosidase II, SEQ ID NO: 10, encoded by SEQ ID NO: 9 (protein)
chain: MTVTPKISVNDGNLVVHGKTILTGVPDNIVLTPGSGLGLVAGAFIGATASNSKSLHVFPVGVLEGTRFLCCFRFKLWWMTQRMGTSGRDIPFETQFLLMESKGNDGEDPDNSSTIYTVFLPLLEGQFRAALQGNEKNEMEICLESGDNTVETNQGLSLVYMHAGTNPFEVITQAVKAVEKHTQTFLHREKKKLPSFLDWFGWCTWDAFYTDVTAEGVVEGLKSLSEGGAPPKFLIIDDGWQQIEAKPKDADCVVQEGAQFASRLSGIKENHKFQKNGNNYDQVPGLKVVVDDAKKQHKVKFVYAWHALAGYWGGVKPASPGMEHYDSALAYPVQSPGMLGNQPDIVVDSLAVHGIGLVHPKKVFNFYNELHSYLASCGIDGVKVDVQNIIETLGAGHGGRVTLTRSYHQALEASIARNFSDNGCIACMCHNTDSLYSAKQTAVVRASDDYYPRDPASHTIHISSVAYNSLFLGEFMQPDWDMFHSLHPTAEYHGAARAIGGCAIYVSDKPGNHNFDLLKKLVLPDGSVLRAQLPGRPTRDSLFNDPARDGTSLLKIWNMNKCSGVVGVFNCQGAGWCRITKKTRIHDESPGTLTTSVRAADVDAISQVAGADWKGDTIVYAYRSGDLIRLPKGASVPVTLKVLEYDLLHISPLKDIASNISFAPIGLLDMFNTGGAVEQVNVQVVEPIPEFDGEVASELTCSLPNDRPPTATITMKARGCRRFGLYSSQRPLKCSVDKVDVDFVYDEVTGLVTFEIPIPTEEMYRWNIEIQV
modifications: Cucumis melo
pH of maximal α-galactosidase activity [5]: 8 pH
